The source of these data is patent US10100064B2, “Purine inhibitors of human phosphatidylinositol 3-kinase delta” (Merck Sharp & Dohme Corp., priority 2014, dated 2018).

The target in one assay is T1, PI3Kdelta (Homo sapiens, UniProt O00329).
T1 construct: purchased Upstate; Millipore 14-604
Nature of the assay: HTRF PI3K biochemical assay, delta isoform. To be noted: 0.3 nM enzyme, 100 uM ATP, 5 uM PIP2, form screened (Neutral or TFA salt) given per compound. The gist of the method:
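PI3Kδ at 0.3 nM with 100 uM ATP and 5 uM PIP2, 10-point 3-fold dilutions, 15 min enzyme–compound pre-incubation, then 1 h reaction at room temperature. PIP3 formation detected by HTRF displacement of biotin-PIP3 from GST-GRP1-PH (665/620 nm ratio). IC50 corrected using a PIP3 standard curve.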

In another assay the target is T2, PI3Kalpha (Homo sapiens, UniProt P42336).
T2 construct: purchased Upstate; Millipore 14-602
Put plainly: HTRF PI3K biochemical assay, alpha isoform (selectivity versus delta). The note with it: relative ratio PI3K-alpha IC50 value / PI3K-delta IC50 value. The method in brief: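 Recombinant PI3Kα (0.5 nM) pre-incubated 15 min with compound, then reacted 1 h at room temperature with 5 μM PIP2 and 100 μM ATP. After EDTA stop, PIP3 measured by HTRF displacement of biotin-PIP3 from GST-GRP1 PH domain (665/620 nm). 10-point dose response; IC50 corrected using a PIP3 standard curve.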
On the technique in general: In TR-FRET formats the signal depends on donor and acceptor labels being close together.

T1 sequence (O00329 whole entry): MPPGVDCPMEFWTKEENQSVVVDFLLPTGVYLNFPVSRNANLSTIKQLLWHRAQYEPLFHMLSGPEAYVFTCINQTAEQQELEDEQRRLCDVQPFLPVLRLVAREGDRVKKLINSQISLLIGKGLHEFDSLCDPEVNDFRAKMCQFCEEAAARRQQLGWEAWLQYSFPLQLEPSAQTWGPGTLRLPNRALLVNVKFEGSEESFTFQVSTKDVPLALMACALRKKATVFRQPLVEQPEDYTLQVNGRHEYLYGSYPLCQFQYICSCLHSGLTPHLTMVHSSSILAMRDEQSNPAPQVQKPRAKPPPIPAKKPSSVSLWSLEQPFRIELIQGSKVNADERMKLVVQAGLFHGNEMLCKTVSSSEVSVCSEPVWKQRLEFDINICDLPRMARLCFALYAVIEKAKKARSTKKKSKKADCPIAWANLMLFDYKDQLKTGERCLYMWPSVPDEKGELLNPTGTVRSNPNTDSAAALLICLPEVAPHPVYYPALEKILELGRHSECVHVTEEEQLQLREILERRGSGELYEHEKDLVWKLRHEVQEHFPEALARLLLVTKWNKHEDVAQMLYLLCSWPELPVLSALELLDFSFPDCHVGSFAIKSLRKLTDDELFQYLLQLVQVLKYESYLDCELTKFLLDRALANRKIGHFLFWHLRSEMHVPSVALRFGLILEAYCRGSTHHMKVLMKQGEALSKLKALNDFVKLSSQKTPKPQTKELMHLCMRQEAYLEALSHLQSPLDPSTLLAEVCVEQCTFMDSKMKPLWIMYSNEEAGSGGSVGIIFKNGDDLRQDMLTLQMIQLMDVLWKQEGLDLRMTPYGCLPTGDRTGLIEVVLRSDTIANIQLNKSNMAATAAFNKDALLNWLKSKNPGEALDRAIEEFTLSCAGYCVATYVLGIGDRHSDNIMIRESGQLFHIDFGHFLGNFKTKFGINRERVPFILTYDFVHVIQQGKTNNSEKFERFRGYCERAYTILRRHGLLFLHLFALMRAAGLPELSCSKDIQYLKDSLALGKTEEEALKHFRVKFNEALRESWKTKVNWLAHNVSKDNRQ
T1 sequence (P27986 whole entry partner): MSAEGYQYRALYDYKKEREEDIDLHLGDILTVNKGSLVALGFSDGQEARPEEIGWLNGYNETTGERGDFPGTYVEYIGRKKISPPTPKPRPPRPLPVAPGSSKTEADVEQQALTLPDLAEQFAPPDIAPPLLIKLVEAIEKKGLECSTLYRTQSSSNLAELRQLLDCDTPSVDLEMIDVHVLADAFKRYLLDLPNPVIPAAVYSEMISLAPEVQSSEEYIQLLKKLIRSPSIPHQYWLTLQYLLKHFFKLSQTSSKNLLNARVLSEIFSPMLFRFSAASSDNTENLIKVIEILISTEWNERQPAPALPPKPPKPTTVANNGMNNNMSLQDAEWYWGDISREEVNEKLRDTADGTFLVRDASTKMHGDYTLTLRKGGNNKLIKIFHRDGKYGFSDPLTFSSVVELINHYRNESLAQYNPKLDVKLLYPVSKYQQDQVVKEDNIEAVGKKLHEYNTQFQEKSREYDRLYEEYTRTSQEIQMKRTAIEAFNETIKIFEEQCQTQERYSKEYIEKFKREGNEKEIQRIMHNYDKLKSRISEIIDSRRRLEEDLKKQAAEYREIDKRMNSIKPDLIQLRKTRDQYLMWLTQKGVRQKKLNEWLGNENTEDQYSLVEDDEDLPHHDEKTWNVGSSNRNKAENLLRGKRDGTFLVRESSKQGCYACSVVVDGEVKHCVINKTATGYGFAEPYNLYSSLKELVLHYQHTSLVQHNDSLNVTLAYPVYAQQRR
T2 sequence (P42336 whole entry): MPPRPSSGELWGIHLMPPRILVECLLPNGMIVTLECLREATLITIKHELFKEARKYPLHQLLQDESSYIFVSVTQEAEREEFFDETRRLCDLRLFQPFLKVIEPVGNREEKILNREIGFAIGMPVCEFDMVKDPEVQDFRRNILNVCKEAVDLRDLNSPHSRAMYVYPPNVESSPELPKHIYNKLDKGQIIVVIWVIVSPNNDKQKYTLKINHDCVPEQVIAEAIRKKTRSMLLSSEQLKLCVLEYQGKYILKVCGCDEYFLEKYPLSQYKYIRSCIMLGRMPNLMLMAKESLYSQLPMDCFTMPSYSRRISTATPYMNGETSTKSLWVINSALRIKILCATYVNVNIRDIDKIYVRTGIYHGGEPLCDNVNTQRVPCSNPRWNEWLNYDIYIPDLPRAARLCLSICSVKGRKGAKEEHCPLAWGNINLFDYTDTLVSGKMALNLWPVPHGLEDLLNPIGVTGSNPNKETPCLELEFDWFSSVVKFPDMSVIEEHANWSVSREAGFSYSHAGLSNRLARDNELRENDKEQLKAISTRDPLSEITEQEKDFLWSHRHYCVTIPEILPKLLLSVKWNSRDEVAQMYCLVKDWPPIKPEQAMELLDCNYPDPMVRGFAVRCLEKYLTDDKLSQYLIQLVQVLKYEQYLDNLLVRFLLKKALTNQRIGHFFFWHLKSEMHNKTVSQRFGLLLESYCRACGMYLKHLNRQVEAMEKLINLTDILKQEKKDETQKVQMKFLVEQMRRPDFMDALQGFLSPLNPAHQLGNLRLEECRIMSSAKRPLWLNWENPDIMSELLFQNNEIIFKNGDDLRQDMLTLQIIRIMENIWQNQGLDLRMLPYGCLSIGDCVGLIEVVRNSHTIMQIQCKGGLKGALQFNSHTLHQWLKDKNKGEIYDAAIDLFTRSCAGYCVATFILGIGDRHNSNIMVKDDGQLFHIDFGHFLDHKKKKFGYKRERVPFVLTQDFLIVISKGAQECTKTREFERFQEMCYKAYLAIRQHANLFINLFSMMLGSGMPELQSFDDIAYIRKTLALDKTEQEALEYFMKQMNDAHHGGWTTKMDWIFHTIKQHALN
T2 sequence (P27986 whole entry partner): as the sequence (P27986 whole entry partner) above

Regarding `CCn1c(-c2cnc(C)nc2)nc2c(NC3CCc4ncn(C(C)C)c4C3)ncnc21` (single isomer, unassigned) [Compound 5-15, (S or R)-9-ethyl-N-[1-(1-methylethyl)-4,5,6,7-tetrahydro-1H-benzimidazol-6-yl]-8-(2-methylpyrimidin-5-yl)-9H-purin-6-amine], at PI3Kdelta, the IC50 turned out to be 4.2 nM. Besides, at PI3Kalpha, the “Selectivity versus PI3Kalpha” value is on record as greater than 10.
For `CCn1c(-c2cnc(C)nc2)nc2c(NC3CCc4ncn(C(C)C)c4C3)ncnc21` (single isomer, unassigned) [Compound 5-16, (S or R)-9-ethyl-N-[1-(1-methylethyl)-4,5,6,7-tetrahydro-1H-benzimidazol-6-yl]-8-(2-methylpyrimidin-5-yl)-9H-purin-6-amine], the IC50 on PI3Kdelta amounted to 384 nM. In addition, the “Selectivity versus PI3Kalpha” value at PI3Kalpha is greater than 10.
`CCn1c(-c2cnc(C)nc2)nc2c(NC3Cc4c(ncn4C(C)C)C(C)C3)ncnc21` (single isomer, unassigned) [Compound 5-17, 9-ethyl-N-[(4(S or R), 6(S or R)-4-methyl-1-(1-methylethyl)-4,5,6,7-tetrahydro-1H-benzimidazol-6-yl]-8-(2-methylpyrimidin-5-yl)-9H-purin-6-amine]: the IC50 on PI3Kdelta was 9 nM. Further, the “Selectivity versus PI3Kalpha” value on PI3Kalpha is greater than 10.
`CCn1c(-c2cnc(C)nc2)nc2c(NC3Cc4c(ncn4C(C)C)C(C)C3)ncnc21` (single isomer, unassigned) [Compound 5-18, 9-ethyl-N-[(4(S or R), 6(S or R)-4-methyl-1-(1-methylethyl)-4,5,6,7-tetrahydro-1H-benzimidazol-6-yl]-8-(2-methylpyrimidin-5-yl)-9H-purin-6-amine]: the IC50 on PI3Kdelta worked out at 510 nM. Besides, the “Selectivity versus PI3Kalpha” value at PI3Kalpha is listed as greater than 10.
For the compound `CCn1c(-c2cnc(C)nc2)nc2c(NC3Cc4c(ncn4C(C)C)CC3C)ncnc21` (single isomer, unassigned) [Compound 5-19, 9-ethyl-N-[cis-5-methyl-1-(1-methylethyl)-4,5,6,7-tetrahydro-1H-benzimidazol-6-yl]-8-(2-methylpyrimidin-5-yl)-9H-purin-6-amine], on PI3Kdelta, the IC50 was 1.7 nM. Further, at PI3Kalpha, the “Selectivity versus PI3Kalpha” value was greater than 10.
`CCn1c(-c2cnc(C)nc2)nc2c(NC3Cc4c(ncn4C(C)C)CC3C)ncnc21` (single isomer, unassigned) [Compound 5-20, 9-ethyl-N-[trans-5-methyl-1-(1-methylethyl)-4,5,6,7-tetrahydro-1H-benzimidazol-6-yl]-8-(2-methylpyrimidin-5-yl)-9H-purin-6-amine]: the IC50 on PI3Kdelta is 120 nM. Further, the “Selectivity versus PI3Kalpha” value at PI3Kalpha is reported as greater than 10.
For `CCn1c(-c2cnc(C)nc2)nc2c(NC3CCc4ncn(C(C)C)c4C3C)ncnc21` (single isomer, unassigned) [Compound 5-21, 9-ethyl-N-[((6S, 7S) or (6R, 7R))-7-methyl-1-(1-methylethyl)-4,5,6,7-tetrahydro-1H-benzimidazol-6-yl]-8-(2-methylpyrimidin-5-yl)-9H-purin-6-amine], the IC50 on PI3Kdelta amounted to 5.7 nM. Moreover, the “Selectivity versus PI3Kalpha” value at PI3Kalpha is greater than 10.
Regarding `CCn1c(-c2cnc(C)nc2)nc2c(NC3CCc4ncn(C(C)C)c4C3C)ncnc21` (single isomer, unassigned) [Compound 5-22, 9-ethyl-N-[((6S, 7S) or (6R, 7R))-7-methyl-1-(1-methylethyl)-4,5,6,7-tetrahydro-1H-benzimidazol-6-yl]-8-(2-methylpyrimidin-5-yl)-9H-purin-6-amine], the IC50 on PI3Kdelta is 260 nM. Further, the “Selectivity versus PI3Kalpha” value on PI3Kalpha is reported as greater than 10.
Take `CCn1c(-c2cnc(C)nc2)nc2c(NC3CCn4cnc(C(C)C)c4C3)ncnc21` (single isomer, unassigned) [Compound 6-1, (S or R)-9-ethyl-N-[1-(1-methylethyl)-5,6,7,8-tetrahydroimidazo[1,5-a]pyridin-7-yl]-8-(2-methylpyrimidin-5-yl)-9H-purin-6-amine]: at PI3Kdelta, the IC50 came to 10 nM. Besides, the “Selectivity versus PI3Kalpha” value at PI3Kalpha was greater than 10.
As to `CCn1c(-c2cnc(C)nc2)nc2c(N[C@H]3Cc4nnc(C5CC5)n4C3)ncnc21` [Compound 1-38, N-[(6S)-3-cyclopropyl-6,7-dihydro-5H-pyrrolo[2,1-c][1,2,4]triazol-6-yl]-9-ethyl-8-(2-methylpyrimidin-5-yl)-9H-purin-6-amine], the IC50 at PI3Kdelta was 5 nM. The “Selectivity versus PI3Kalpha” value at PI3Kalpha is on record as greater than 10.

Usually IC50 stands for the concentration that inhibits the measured activity by half.
